# Literature values, collected in US20140179719A1, “NOVEL AMORPHOUS SOLID DISPERSIONS OF VALGANCICLOVIR HYDROCHLORIDE” (priority 2012, published 2014).
# Like-named read-outs stand apart in the source and are kept apart here.
# Conditions: ganciclovir administered orally
smiles,measurement,setting,value
Nc1nc(O)c2ncn(COC(CO)CO)c2n1 [Ganciclovir],"bioavailability of ganciclovir, oral formulation",,6-10%
same,"bioavailability of ganciclovir, oral formulation",listed as gancilcovir,6%
